Converted amounts (≈) assume the structure as drawn.
What was measured:
[1] = system: Staphylococcus epidermidis (ATCC 12228); test: MIC, serial broth dilution; assay type: cell-based; details: MHB, 18 h, 37° C.
Description: (§1) The peptidomimetics designed in present invention were evaluated as antibacterial therapeutics against a broad range of bacterial strains by broth microdilution method. The antibacterial activity of the peptidomimetics was reported in terms of the minimum inhibitory concentrations (MIC).
(§2) Following bacterial strains were used in this study: S. aureus (ATCC 29213), methicillin resistant S. aureus (ATCC 33591), Staphylococcus epidermidis (ATCC 12228), methicillin resistant Staphylococcus epidermidis(ATCC 51625), Enterococcus faecalis (ATCC 7080), Escherichia coli (ATCC 11775), and Acinetobacter baumannii (ATCC 19606). Antibacterial activity was evaluated using a modified serial broth dilution method in accordance with Clinical Laboratory Standard Institute guidelines [Methods for dilution antimicrobial susceptibility tests for bacteria that grow aerobically-7th ed. Approved standard M7-A7. Clinical and Laboratory Standards Institute, Wayne, Pa., Biochim. Biophys. Acta 1798:1864-1875, 2010.]. Briefly, the inoculums were prepared from mid-log phase bacterial cultures. Peptidomimetics were incubated with bacterial suspension in Muller Hinton broth media (10^5 CFU/mL) in 96 well microtitre plate. The plates were incubated overnight with agitation (200 rpm) at 37° C. After 18 h, absorbance was measured at 630 nm. Cultures without test peptidomimetics were used as positive control. Un-inoculated Mueller Hinton Broth (MHB) was used as negative control. Tests were carried out in duplicate on at least three different days. […] For comparison standard peptide antibiotics vancomycin (VAN) and polymyxin B (PMB) were also assayed under identical conditions (Table 2). […] Further, antibacterial activity of active peptidomimetics 1c and 1d were also evaluated against MRSA in presence of 25% v/v human serum as well as bovine serum.

[2] = system: Enterococcus faecalis (ATCC 7080); test: MIC, serial broth dilution; assay type: cell-based; details: MHB, 18 h, 37° C.
Description: as §1, §2

[3] = system: methicillin resistant Staphylococcus epidermidis (ATCC 51625); test: MIC, serial broth dilution; assay type: cell-based; details: MHB, 18 h, 37° C.
Description: as §1, §2

[4] = system: S. aureus (ATCC 29213); test: MIC, serial broth dilution; assay type: cell-based, Staphylococcus aureus; details: MHB, 18 h, 37° C.
Description: as §1, §2

[5] = system: methicillin resistant S. aureus (ATCC 33591); test: MIC, serial broth dilution; assay type: cell-based, Staphylococcus aureus; details: MHB, 18 h, 37° C.
Description: as §1, §2

[6] = system: Escherichia coli (ATCC 11775); test: MIC, serial broth dilution; assay type: cell-based; design: MIC E. coli. (ATCC 11775): unit not given here; details: MHB, 18 h, 37° C.
Description: as §1, §2

[7] = system: human red blood cells (hRBC); test: Hemolytic activity; assay type: cell-based; details: 250 μg/mL, 1 h at 37° C.
Description: Hemolytic activity of the peptidomimetics was evaluated on human red blood cells (hRBC) as described previously with minor modifications [FEBS J, 273:4040-4054, 2006; Biochim Biophys Acta., 1798:1864-1875, 2010]. Briefly, 100 μL of fresh hRBC suspension 4% v/v in NaCl/Pi (35 mM phosphate buffer, 150 mM NaCl, pH 7.2) was placed in a 96-well plate. After incubation of the peptidomimetics (100 μL) in the hRBC suspension for 1 h at 37° C., the plates were centrifuged and supernatant (100 μL) was transferred to fresh 96-well plate. Absorbance was read at 540 nm using ELISA plate reader (Molecular Devices). Percent hemolysis was calculated using the following formula: % hemolysis=100[(A−A0)/(At−A0)]
Where, A represents absorbance of sample wells at 540 nm. Also A0 and At represents 0% and 100% hemolysis determined in NaCl/Pi and 1% Triton X-100, respectively (Table 2). […] Peptidomimetics 1e and 1f caused 31% and 30% hemolysis at 250 μg/mL. Peptidomimetics 2d, 2e and 2f caused significant hemolysis with 83%, 96% and 88% damage to hRBCs at […] respectively.

[8] = system: Acinetobacter baumannii (ATCC 19606); test: MIC, serial broth dilution; assay type: cell-based; details: MHB, 18 h, 37° C.
Description: as §1, §2

[9] = system: MRSA; test: Membrane depolarization with DiSC3(5) dye; assay type: cell-based, Staphylococcus aureus; details: up to the highest concentration tested
Description: For determination of membrane depolarizing ability of designed peptidomimetics, a membrane potential sensitive dye DiSC3(5) was used as described previously with minor modifications [Org Biomol. Chem. 10: 8326-8335, 2012; J. Am. Chem. Soc., 132: 18417-18428, 2010.]. Briefly, overnight grown MRSA was sub cultured into MHB for 2-3 h at 37° C. to obtain mid-log phase cultures. The cells were centrifuged at 4000 rpm for 10 min at 25° C., washed, and re-suspended into respiration buffer (5 mM HEPES, 20 mM glucose, pH 7.4) to obtain a diluted suspension of OD600˜0.05. Then DiSC3(5) [0.18 μM in DMSO], was added to 500 μL aliquotes of the re-suspended cells and allowed to stabilize for 1 h. Baseline fluorescence was acquired using a Edinburg F900 spectrofluorometer by excitation at 622 nm and emission at 670 nm in a 1 cm path length cuvette. Bandwidth of 5 nm was employed for excitation and emission. Subsequently, increasing concentrations of test peptidomimetics were added to the stabilized cells and the increase of fluorescence on account of the de-quenching of DiSC3(5) dye was measured after every 2 min to obtain the maximal depolarization. Increase in relative fluorescence unit (RFU) was plotted against increasing concentrations of different peptidomimetics or PMB. […] The increase in fluorescence for lipid tagged peptidomimetics was concentration dependent up to 9.9 μg/mL and henceforth, got saturated resulting into plateau like dose response curves. The experiment was repeated twice on two consecutive days and produced similar results.

[10] = system: all the tested strains; test: Antibacterial activity; assay type: cell-based; details: series 2
Description: as §2

[11] = system: S. aureus (ATCC 33591); test: Resistance development study, serial passage at sub MIC; assay type: cell-based, Staphylococcus aureus; details: 17 serial passages at sub MIC
Description: FIG. 5: Illustration of resistance development study in S. aureus (ATCC 33591) after 17 serial passages with sub MIC of 1c/1d or antibiotic treatment. The fold change in MIC is the ratio of the MIC after 17 passages relative to that MIC observed before first passage.
To determine potential of active peptidomimetics against resistance development, in vitro serial passage method at sub inhibitory concentration was done. Briefly, bacterial suspension (100 μL) from duplicate wells at the concentration of sub-MIC was used to inoculate fresh culture. The culture was grown to obtain approximately 10^5 CFU/mL for the next experiment. These bacterial suspensions were then incubated with desired concentration of antibacterial agents for 18 h to determine new MIC. The same sub culturing protocol was used for next 16 passages and MIC was determined using OD630 nm as described previously in the text [Chem. Biol., 20:1286-1295, 2013.]

[12] = system: Gram-negative bacterial strains; test: Antibacterial activity; assay type: cell-based
Description: as §2

[13] = system: Staphylococcus species; test: Antibacterial activity; assay type: cell-based
Description: as §2

Compound	MIC S. epidermidis (ATCC 12228) [1] [µg/mL]	MIC E. facaelis (ATCC 7080) [2] [µg/mL]	MIC MRSE (ATCC 51625) [3] [µg/mL]	MIC S. aureus (ATCC 29213) [4] [µg/mL]	MIC MRSA (ATCC 33591) [5] [µg/mL]	MIC E. coli. (ATCC 11775) [6]	% H, percentage hemolysis of human RBCs [7] [%]	MIC A. baumannii (ATCC 19606) [8] [µg/mL]	change in relative fluorescence unit (RFU), membrane depolarization [9]	antibacterial activity [10]	increase in MIC after 17 passages [11] [fold]	growth inhibition of Gram-negative bacterial strains [12]	activity against Staphylococcus species [13]
NCCCNCCCCNCCCNC(=O)C(Cc1c[nH]c2ccccc12)NC(=O)C(Cc1c[nH]c2ccccc12)NC(=O)C=Cc1ccc(O)c(O)c1 (stereo not shown) [1b]	3.5 (≈ 4.75 µM)	0.1136 (≈ 0.154 µM)	0.0071 (≈ 0.00963 µM)	0.0035 (≈ 0.00475 µM)	7.1 (≈ 9.63 µM)	14.2	16	–	–	–	–	–	–
CCCCCCCCCCCC(=O)NC(Cc1c[nH]c2ccccc12)C(=O)NC(Cc1c[nH]c2ccccc12)C(=O)NCCCNCCCCNCCCN (stereo not shown) [1e]	1.7 (≈ 2.25 µM)	0.0071 (≈ 0.00938 µM)	0.0017 (≈ 0.00225 µM)	0.0017 (≈ 0.00225 µM)	3.5 (≈ 4.62 µM)	14.2	31	0.0568 (≈ 0.075 µM)	significant changes in RFU	–	–	–	–
CCCCCC=CCC=CCCCCCCCC(=O)NC(Cc1c[nH]c2ccccc12)C(=O)NC(Cc1c[nH]c2ccccc12)C(=O)NCCCNCCCCNCCCN (stereo not shown) [1f]	1.7 (≈ 2.03 µM)	0.0284 (≈ 0.0339 µM)	0.0071 (≈ 0.00848 µM)	0.0071 (≈ 0.00848 µM)	3.5 (≈ 4.18 µM)	28.4	30	–	significant changes in RFU	–	–	–	–
NCCCN(CCCCN(CCCN)C(=O)C(N)Cc1c[nH]c2ccccc12)C(=O)C(N)Cc1c[nH]c2ccccc12 (stereo not shown) [2a]	>454.4	–	0.2272 (≈ 0.395 µM)	>0.4544	>227.2	>454.4	0	–	only minor increase	poor activity	–	–	–
NCCCN(CCCCN(CCCNC(=O)C=Cc1ccc(O)c(O)c1)C(=O)C(N)Cc1c[nH]c2ccccc12)C(=O)C(N)Cc1c[nH]c2ccccc12 (stereo not shown) [2b]	–	–	–	>0.4544	454.4 (≈ 617 µM)	>454.4	5	–	–	poor activity	–	–	–
NCCCN(CCCCN(CCCNC(=O)Cc1ccc(C(F)(F)F)cc1)C(=O)C(N)Cc1c[nH]c2ccccc12)C(=O)C(N)Cc1c[nH]c2ccccc12 (stereo not shown) [2c]	7.1 (≈ 9.33 µM)	–	0.0142 (≈ 0.0187 µM)	0.0142 (≈ 0.0187 µM)	28.4 (≈ 37.3 µM)	113.6	1	0.1136 (≈ 0.149 µM)	only marginal changes in RFU	moderate activity	–	–	–
CCCCCCCCCC(=O)NCCCN(CCCCN(CCCN)C(=O)C(N)Cc1c[nH]c2ccccc12)C(=O)C(N)Cc1c[nH]c2ccccc12 (stereo not shown) [2d]	0.8 (≈ 1.1 µM)	0.0284 (≈ 0.039 µM)	0.0017 (≈ 0.00233 µM)	0.0008 (≈ 0.0011 µM)	1.7 (≈ 2.33 µM)	28.4	83	0.1136 (≈ 0.156 µM)	intermediate changes in fluorescence intensity	–	–	–	–
CCCCCCCCCCCC(=O)NCCCN(CCCCN(CCCN)C(=O)C(N)Cc1c[nH]c2ccccc12)C(=O)C(N)Cc1c[nH]c2ccccc12 (stereo not shown) [2e]	0.8 (≈ 1.06 µM)	0.0071 (≈ 0.00938 µM)	0.0017 (≈ 0.00225 µM)	0.0008 (≈ 0.00106 µM)	1.7 (≈ 2.25 µM)	28.4	96	0.1136 (≈ 0.15 µM)	significant changes in RFU	–	–	–	–
CCCCCC=CCC=CCCCCCCCC(=O)NCCCN(CCCCN(CCCN)C(=O)C(N)Cc1c[nH]c2ccccc12)C(=O)C(N)Cc1c[nH]c2ccccc12 (stereo not shown) [2f]	0.8 (≈ 0.956 µM)	0.0142 (≈ 0.017 µM)	0.0017 (≈ 0.00203 µM)	0.0008 (≈ 0.000956 µM)	3.5 (≈ 4.18 µM)	28.4	88	0.0568 (≈ 0.0678 µM)	significant changes in RFU	–	–	–	–
O=C(O)c1cn(C2CC2)c2cc(N3CCNCC3)c(F)cc2c1=O [ciprofloxacin, reference compound]	–	–	–	–	–	–	–	–	–	–	256	–	–
polymyxin B [PMB, reference compound]	7.1	0.1136	0.0284	0.0142	28.4	0.4	–	–	–	–	–	excellent growth inhibition	relatively poor activity

— patent publication US9738684B2, “N-terminally modified linear and branched polyamine conjugated peptidomimetics as antimicrobials agents” (COUNCIL OF SCIENTIFIC & INDUSTRIAL RESEARCH, priority 2015, dated 2017)
